Measurements reported in article PMC7600243, “Live Imaging of Phosphate Levels in Arabidopsis Root Cells Expressing a FRET-Based Phosphate Sensor” (Plants, 2020).

Biological target: PiBP (Pi binding bacterial periplasmic Binding Protein) of the FLIPPi sensors FLIPPi-30m and FLIPPi-4µ
Conditions: pH 7.0; 20 mM Tris-HCl or MOPS; in planta, externally applied Pi buffer 0-200 mM; inhibitor dose response fit, variable slope

SMILES: O=P(O)(O)O [Pi, inorganic phosphate]
- Kd: 35 mM
